For assay [1], the system named is MCF-7 breast cancer cells. Put plainly: OCR and ECAR, SeaHorse XF analyzer. Format: cell-based. The source says:
(SeaHorse Biosciences Inc, North Billerica, Mass.).
In contrast, cancer cells (e.g., MCF-7, PaCa-2) are inherently primed to culture at higher levels of glucose compared to normal cells due to their glycolytic phenotype for maintenance in culture.

The subject of assay [2] is Pyruvate Kinase M2 (PKM2). Put plainly: Western blot, Pyruvate Kinase M2 levels. Conditions: cancer cells tested. Format: cell-based, human. Here is the method:
The samples were processed and run on a 4-12% Bis-Tris Novex NuPAGE gel as described above. The gels were run, transferred and stained essentially as described above.
The lactate dehydrogenase blots were stripped by incubating for 30 minutes with methanol, followed by two 10 minute washes with TBS-T, then 30 minutes of incubation with Stripping buffer at 50 deg C., and followed by two washes with 100 ml or more of TBS-T for 30′ each. The 2 blots were scanned in laser scanner to check for complete stripping. The blots were activated with methanol for 5 seconds, washed with water for 5 minutes, and TBST for 15 minutes. The blots were blocked for 1 hour with 5% blocking reagent in TBS-T at room temperature and then washed 3 times with TBS-T (1X−15′; 2X5′ each) and probed with the rabbit polyclonal antibody for Pyruvate Kinase M2 in 5% BSA (NOVUS BIOLOGICALS catalog #H00005315-D01P) at 1:500 dilution overnight at 4 deg C. with shaking. After the overnight incubation with primary antibody for Pyruvate Kinase M2, the membranes were washed 3 times with TBS-T (1X−15′; 2X5′ each) and probed with the secondary antibody (antirabbit; 1:10,000 dilution) for 1 h on the orbital tilting shaker at room temperature. […]
For orientation: In western blotting, separated proteins are transferred to a membrane and probed.

The next assay concerns SkBr-3 cells. Put plainly: Real-time PCR Apoptosis Array. Format: cell-based, human. The protocol:
RNA was quantified by measuring Optical Density at 260 nm.
Changes in mRNA levels were evaluated using real-time PCR quantification to assess mRNA levels in pre-selected subsets containing […] pathway specific targets.
The assay method of RT-PCR was utilized to provide a measure of mRNA level changes to a total of 84 apoptotic pathway related proteins.
(Real-time PCR tracks product formation cycle by cycle.)

Each structure is given as a SMILES string.

For the molecule `COC1=C(OC)C(=O)C(C/C=C(\C)CC/C=C(\C)CC/C=C(\C)CC/C=C(\C)CC/C=C(\C)CC/C=C(\C)CC/C=C(\C)CC/C=C(\C)CC/C=C(\C)CCC=C(C)C)=C(C)C1=O` [Q10, Coenzyme Q10], the OCR values result in assay [1] was “consistent reduction in OCR values”. Moreover, the PKM2 expression result in assay [2] is reported as “dose-dependent decrease in the PKM2 expression”. In addition, the “mRNAs Bcl2, Bcl2L1, Bcl2L11, Birc6, Bax, Xiap, Hprt1, Apaf1, Abl1, Braf” value with SkBr-3 cells (SkBr3, Q10 24 hr) is “affected”. The “Bcl-xl mRNA level” value in the assay with SkBr-3 cells (apoptosis array) is given as “significant up-regulation”.

The values are drawn from patent US10519504B2, “Methods for treatment of oncological disorders using epimetabolic shifters, multidimensional intracellular molecules, or environmental influencers” (Berg LLC, priority 2009, dated 2019).
